Laboratory results from patent US9938281B2 (Merck Sharp & Dohme Corp., priority 2012, dated 2018).

Tests used:
[1] = molecular target: T1, PI3K-alpha (Homo sapiens, UniProt P42336); assay: HTRF PI3K biochemical assay, alpha isoform; details: ratio PI3K-alpha IC50 value / PI3K-delta IC50 value
T1 construct: purchased Upstate; Millipore 14-602

[2] = molecular target: T2, PI3K-delta (Homo sapiens, UniProt O00329); assay: HTRF PI3K biochemical assay, delta isoform; details: form screened (neutral or TFA salt) given, read-out: PI3Kdelta IC50
T2 construct: purchased Upstate; Millipore 14-604
T2 sequence (O00329 whole entry, canonical isoform): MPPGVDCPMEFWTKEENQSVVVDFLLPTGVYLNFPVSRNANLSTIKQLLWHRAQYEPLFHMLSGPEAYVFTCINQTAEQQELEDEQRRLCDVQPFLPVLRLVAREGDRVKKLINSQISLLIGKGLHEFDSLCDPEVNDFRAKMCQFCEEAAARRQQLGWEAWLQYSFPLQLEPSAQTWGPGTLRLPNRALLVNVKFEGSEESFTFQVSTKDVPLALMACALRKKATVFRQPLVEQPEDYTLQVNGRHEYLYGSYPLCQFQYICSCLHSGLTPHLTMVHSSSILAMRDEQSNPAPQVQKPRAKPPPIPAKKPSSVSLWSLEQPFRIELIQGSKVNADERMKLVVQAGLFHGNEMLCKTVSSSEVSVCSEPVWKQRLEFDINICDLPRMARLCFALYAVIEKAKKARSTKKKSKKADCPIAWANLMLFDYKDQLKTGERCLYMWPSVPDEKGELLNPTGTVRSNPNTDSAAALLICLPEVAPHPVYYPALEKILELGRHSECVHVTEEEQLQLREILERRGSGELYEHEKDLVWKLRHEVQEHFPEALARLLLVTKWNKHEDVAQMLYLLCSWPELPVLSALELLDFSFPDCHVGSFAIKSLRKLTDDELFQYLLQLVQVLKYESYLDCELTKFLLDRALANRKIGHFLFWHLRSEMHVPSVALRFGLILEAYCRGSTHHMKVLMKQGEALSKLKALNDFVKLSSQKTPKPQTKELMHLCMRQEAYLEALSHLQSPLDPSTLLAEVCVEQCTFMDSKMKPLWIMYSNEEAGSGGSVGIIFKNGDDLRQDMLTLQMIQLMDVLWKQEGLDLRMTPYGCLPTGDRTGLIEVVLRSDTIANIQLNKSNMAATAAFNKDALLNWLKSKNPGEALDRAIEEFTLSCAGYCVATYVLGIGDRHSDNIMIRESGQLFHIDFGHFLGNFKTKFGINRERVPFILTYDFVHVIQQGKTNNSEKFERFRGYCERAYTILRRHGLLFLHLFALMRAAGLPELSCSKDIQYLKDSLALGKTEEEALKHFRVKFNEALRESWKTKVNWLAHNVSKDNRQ
T2 sequence (P27986 whole entry partner, canonical isoform): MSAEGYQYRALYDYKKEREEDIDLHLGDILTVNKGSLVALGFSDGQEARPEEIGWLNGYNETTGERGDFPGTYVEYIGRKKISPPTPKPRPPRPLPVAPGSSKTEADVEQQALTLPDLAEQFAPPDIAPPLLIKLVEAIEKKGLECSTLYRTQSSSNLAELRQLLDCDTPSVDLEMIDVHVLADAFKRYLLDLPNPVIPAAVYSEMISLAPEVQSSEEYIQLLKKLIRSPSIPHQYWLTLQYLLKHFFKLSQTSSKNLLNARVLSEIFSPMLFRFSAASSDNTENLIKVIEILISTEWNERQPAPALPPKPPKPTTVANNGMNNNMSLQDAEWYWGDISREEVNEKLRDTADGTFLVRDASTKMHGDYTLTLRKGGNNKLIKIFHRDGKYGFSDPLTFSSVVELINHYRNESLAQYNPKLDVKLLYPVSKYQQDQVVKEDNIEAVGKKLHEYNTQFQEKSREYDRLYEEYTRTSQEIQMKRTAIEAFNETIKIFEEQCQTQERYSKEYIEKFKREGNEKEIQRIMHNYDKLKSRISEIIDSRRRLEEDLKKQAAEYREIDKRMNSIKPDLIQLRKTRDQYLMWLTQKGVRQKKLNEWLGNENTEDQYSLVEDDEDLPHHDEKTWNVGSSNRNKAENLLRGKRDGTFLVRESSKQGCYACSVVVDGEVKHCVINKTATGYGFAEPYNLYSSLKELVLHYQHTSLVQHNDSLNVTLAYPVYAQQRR
Description: HTRF PI3K Biochemical Assay to Measure Intrinsic Potency of Compound Inhibitors
This assay was developed and further optimized from a kit produced by Upstate (Millipore catalog #33-047) and has been configured for HTS and SAR screening. Briefly, this procedure exploits the exquisite specificity and high affinity binding of enzyme reaction substrate phosphatidyl(3,4,5)triphosphate (PIP3) to the GRP1 pleckstrin homology (PH) domain to generate the signal. In the absence of PIP3, an HTRF (Homogeneous Time-Resolved Fluorescence energy transfer) complex is formed consisting of europium (Eu)-labeled anti-GST, GSTtagged GRP1-PH domain, biotin-PIP3 and streptavidin conjugated APC. The native PIP3 produced by PI3-Kinase activity disrupts in a competitive manner the biotin-PIP3 from the PH domain, resulting in the loss of energy transfer (HTRF complex) and a decrease in the signal. The format of this assay is the same for all 4 isoforms of PI3K; the differences lie in the concentration of enzyme used to achieve robust assay window. The alpha, beta, and delta assays are run at 0.5, 1, and 0.3 nM enzymes and the gamma assay is run at 5 nM enzyme. The ATP concentration is 100 uM in the alpha, beta, and delta assays and 50 uM ATP in the gamma assay. All reactions are run at 5 uM PIP2.
Compounds are serially diluted (3-fold in 100% DMSO) across a 384-well polypropylene source plated from column 3 to column 12 and column 13 to column 22, to yield 10 concentration dose response for each test compound. Columns 1, 2, 23 and 24 contain either only DMSO or pharmacological known control inhibitor.
The PI3-Kinase biochemical assay was optimized using the HTRF kit provided by Upstate (Millipore). The assay kit contains six reagents: 1) 4× Reaction Buffer; 2) native PIP2 (substrate); 3) Stop (EDTA); 4) Detection Mix A (Streptavidin-APC); 5) Detection Mix B (Eu-labeled Anti-GST plus GST-tagged PH-domain); 6) Detection Mix C.
PI3Kinase Reaction Buffer is prepared by dilution the stock 1:4 with de-ionized water. […] Enzyme addition and compound pre-incubation are initiated by the addition of 1.25 ul of PI3K (at twice its final concentration) in the 1× reaction buffer to all wells using a BioRaptor. Plates are incubated at room temperature for 15 minutes. Reactions are initiated by addition of 1.25 ul of 2× substrate solution (PIP2 and ATP in 1× reaction buffer) using BioRaptor. Plates are incubated in humidified chamber at room temperature for one hour. Reactions are quenched by addition of 0.625 uL of stop solution to all wells using the BioRaptor. The quenched reactions are then processed to detect product formation by adding 0.625 uL of Detection Solution to all wells using the BioRaptor (Detection mix C, Detection Mix A, and Detection Mix B combined together in an 18:1:1 ratio prepared 2 hours prior to use).
The loss of the HTRF signal is due to the displacement of biotinylated-PIP3 from the PH domain by the PI3K-dependent conversion of PIP2 to PIP3. This loss of signal is nonlinear with respect to both increasing product and time. This non-linear detection will impact accuracy of IC50 calculations; therefore, there is a need for a correction factor to obtain more accurate IC50 values. This correction is derived from a PIP3 standard curve run in a separate assay plate. All data were calculated using the ratio of acceptor (APC) to donor (Europium) fluorescence in each well of the assay plate. […] An IC50 was then calculated fitting the % inhibition data to the equation: % inhibition=min+(Max−min)/1+([inhibitor]/IC50)^n) where min is the % inhibition with inhibitor, max is the signal in DMSO control, and n is the Hill slope.

T1 sequence (P42336 whole entry, canonical isoform): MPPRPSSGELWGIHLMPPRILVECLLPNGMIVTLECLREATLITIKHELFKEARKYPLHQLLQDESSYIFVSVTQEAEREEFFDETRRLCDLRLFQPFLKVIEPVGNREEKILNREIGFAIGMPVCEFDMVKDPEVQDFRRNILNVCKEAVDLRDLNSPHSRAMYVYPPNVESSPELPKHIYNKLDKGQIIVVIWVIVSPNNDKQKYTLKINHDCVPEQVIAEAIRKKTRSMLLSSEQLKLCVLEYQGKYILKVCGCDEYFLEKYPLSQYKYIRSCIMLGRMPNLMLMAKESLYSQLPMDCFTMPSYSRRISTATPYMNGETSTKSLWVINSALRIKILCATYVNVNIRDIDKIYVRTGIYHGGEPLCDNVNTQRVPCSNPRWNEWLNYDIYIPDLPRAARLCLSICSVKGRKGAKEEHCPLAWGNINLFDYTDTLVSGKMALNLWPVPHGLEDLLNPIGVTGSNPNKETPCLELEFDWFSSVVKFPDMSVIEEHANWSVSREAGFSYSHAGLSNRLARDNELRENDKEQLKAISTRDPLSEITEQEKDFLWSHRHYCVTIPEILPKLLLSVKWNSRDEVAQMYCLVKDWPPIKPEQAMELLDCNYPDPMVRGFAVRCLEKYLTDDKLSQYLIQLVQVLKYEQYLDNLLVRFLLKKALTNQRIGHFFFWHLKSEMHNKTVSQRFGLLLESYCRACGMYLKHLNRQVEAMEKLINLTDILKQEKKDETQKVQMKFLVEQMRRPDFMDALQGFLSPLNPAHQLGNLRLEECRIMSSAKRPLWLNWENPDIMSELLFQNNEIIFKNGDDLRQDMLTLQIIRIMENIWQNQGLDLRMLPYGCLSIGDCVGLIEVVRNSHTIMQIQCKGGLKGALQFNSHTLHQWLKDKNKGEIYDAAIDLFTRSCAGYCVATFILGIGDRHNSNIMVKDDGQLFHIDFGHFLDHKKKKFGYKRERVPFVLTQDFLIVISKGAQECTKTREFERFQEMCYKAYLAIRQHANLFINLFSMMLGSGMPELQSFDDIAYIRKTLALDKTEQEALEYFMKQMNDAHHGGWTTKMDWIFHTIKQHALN
T1 sequence (P27986 whole entry partner, canonical isoform): as the sequence (P27986 whole entry partner, canonical isoform) above

Structure (SMILES)	Selectivity versus PI3Kalpha [1]	IC50 [2]
CCn1c(-c2cnc(OC)c(F)c2)nc2c(N[C@H]3CCN(C(=O)C4CC(F)(F)C4)C3)ncnc21 [Compound 3A-7, N-{(3S)-1-[(3,3-difluorocyclobutyl)carbonyl]pyrrolidin-3-yl}-9-ethyl-8-(5-fluoro-6-methoxypyridin-3-yl)-9H-purin-6-amine]	>10	< 1 nM
CCn1ncc(-c2nc3c(N[C@H]4CCN(C(=O)C5CC5)C4)ncnc3n2C)c1C [Compound 2-7, N-[(3S)-1-(cyclopropylcarbonyl)pyrrolidin-3-yl]-8-(1-ethyl-5-methyl-1H-pyrazol-4-yl)-9-methyl-9H-purin-6-amine]	>10	1.2 nM
CCn1c(-c2cnc(C)nc2)nc2c(N[C@H]3CCN(C(=O)C4CCNCC4)C3)ncnc21 [Compound 2-78, 9-ethyl-8-(2-methylpyrimidin-5-yl)-N-[(3S)-1-(piperidin-4-ylcarbonyl)pyrrolidin-3-yl]-9H-purin-6-amine]	>10	4.6 nM
CCn1ncc(-c2nc3c(N[C@H]4CCN(C(=O)c5nc(C)oc5C)C4)ncnc3n2C)c1C [Compound 2-5, N-{(3S)-1-[(2,5-dimethyl-1,3-oxazol-4-yl)carbonyl]pyrrolidin-3-yl}-8-(1-ethyl-5-methyl-1H-pyrazol-4-yl)-9-methyl-9H-purin-6-amine]	>10	1.5 nM
CCn1c(-c2ccc(OC)nc2)nc2c(N[C@H]3CCN(C(=O)OC(C)(C)C)C3)ncnc21 [Compound 1-23, tert-butyl (3S)-3-{[9-ethyl-8-(6-methoxypyridin-3-yl)-9H-purin-6-yl]amino}pyrrolidine-1-carboxylate]	>10	< 1 nM
CCn1c(-c2cnc(C)nc2)nc2c(N[C@H]3CCN(C(=O)C4(COC)CCC4)C3)ncnc21 [Compound 2-57, 9-ethyl-N-[(3S)-1-{[1-(methoxymethyl)cyclobutyl]carbonyl}pyrrolidin-3-yl]-8-(2-methylpyrimidin-5-yl)-9H-purin-6-amine]	>10	7.1 nM
CCn1c(-c2cnc(C)nc2)nc2c(N[C@H]3CCN(C(=O)C4NC(=O)C4(C)C)C3)ncnc21 (mixture of isomers) [Compound 2-67, (R and S)-4-{[(3S)-3-{[9-ethyl-8-(2-methylpyrimidin-5-yl)-9H-purin-6-yl]amino}pyrrolidin-1-yl]carbonyl}-3,3-dimethylazetidin-2-one]	>10	1.5 nM
CCn1c(-c2cnc(C)nc2)nc2c(N[C@H]3CCN(C(=O)C4(C#N)CC4)C3)ncnc21 [Compound 2-65, 1-{[(3S)-3-{[9-ethyl-8-(2-methylpyrimidin-5-yl)-9H-purin-6-yl]amino}pyrrolidin-1-yl]carbonyl}cyclopropanecarbo-nitrile]	>10	11 nM
CCn1c(-c2ccc(C(F)(F)F)nc2)nc2c(N[C@H]3CCN(C(=O)C4CC4)C3)ncnc21 [Compound 2-49, N-[(3S)-1-(cyclopropylcarbonyl)pyrrolidin-3-yl]-9-ethyl-8-[6-(trifluoromethyl)pyridin-3-yl]-9H-purin-6-amine]	>10	1 nM
CCn1c(-c2cnc(C)nc2)nc2c(NC3CN(C(=O)C4CC4)CC34CC4)ncnc21 (racemic) [Compound 3-17, (R and S)-N-[5-(cyclopropylcarbonyl)-5-azaspiro[2.4]hept-7-yl]-9-ethyl-8-(2-methylpyrimidin-5-yl)-9H-purin-6-amine]	>10	< 1 nM
CCn1c(-c2cnc(C)nc2)nc2c(NC3CCN(C(=O)c4cnco4)C3)ncnc21 (stereo in doubt) [Compound 2-76, (R)-(3-((9-ethyl-8-(2-methylpyrimidin-5-yl)-9H-purin-6-yl)amino)pyrrolidin-1-yl)(oxazol-5-yl)methanone]	>10	3.1 nM
CCn1c(-c2cnc(C)nc2)nc2c(N[C@H]3CCN(C(=O)C(C)(C)N)C3)ncnc21 [Compound 2-80, N-[(3S)-1-(2-amino-2-methylpropanoyl)pyrrolidin-3-yl]-9-ethyl-8-(2-methylpyrimidin-5-yl)-9H-purin-6-amine]	>10	61 nM
Cn1c(-c2cnc(C(C)(C)C)s2)nc2c(N[C@H]3CCN(C(=O)OC(C)(C)C)C3)ncnc21 [Compound 1-9, (S)-tert-butyl 3-((8-(2-(tert-butyl)thiazol-5-yl)-9-methyl-9H-purin-6-yl)amino)pyrrolidine-1-carboxylate]	>10	< 1 nM

Other lines, results leading:

Selectivity versus PI3Kalpha [1]	IC50 [2]	Structure (SMILES)
>10	13 nM	CCn1c(-c2cnc(C)nc2)nc2c(NC3CCCC(=O)N(CC4CC4)C3)ncnc21 (single isomer, unassigned) [Compound 14-7, (R or S)-1-(cyclopropylmethyl)-6-{[9-ethyl-8-(2-methylpyrimidin-5-yl)-9H-purin-6-yl]amino}azepan-2-one]
>10	3.7 nM	CCn1c(-c2cnc(C)nc2)nc2c(N[C@H]3CCN(c4ccc(C)cn4)C3)ncnc21 [Compound 4-3, 9-ethyl-N-[(3S)-1-(5-methylpyridin-2-yl)pyrrolidin-3-yl]-8-(2-methylpyrimidin-5-yl)-9H-purin-6-amine]
>10	8.2 nM	CCn1c(-c2cnc(C)nc2)nc2c(N[C@H]3C[C@H](C(=O)OC)N(c4ccccn4)C3)ncnc21 [Compound 4-12, methyl (4S)-4-{[9-ethyl-8-(2-methylpyrimidin-5-yl)-9H-purin-6-yl]amino}-1-pyridin-2-yl-D-prolinate]
>10	2.5 nM	CCn1c(-c2cnc(C)nc2)nc2c(N[C@H]3C[C@H](C(=O)O)N(C(=O)C4CC4)C3)ncnc21 [Compound 15-1, (4S)-1-(cyclopropylcarbonyl)-4-{[9-ethyl-8-(2-methylpyrimidin-5-yl)-9H-purin-6-yl]amino}-D-proline]
>10	1.6 nM	CCn1c(-c2cnc(C)nc2)nc2c(N[C@H]3CCN(C(=O)N4CC[C@H](OC)C4)C3)ncnc21 [Compound 12-14]
>10	< 1 nM	CCn1c(-c2cnc(C)nc2)nc2c(N[C@H]3CCN(c4ccccn4)C3)ncnc21 [Compound 4-1, 9-ethyl-8-(2-methylpyrimidin-5-yl)-N-[(3S)-1-pyridin-2-ylpyrrolidin-3-yl]-9H-purin-6-amine]
>10	5.4 nM	CCn1ncc(-c2nc3c(NC4CC(=O)N(CC(C)C)C4)ncnc3n2C)c1C (racemic) [Compound 14-3, 4(S and R)-{[8-(1-ethyl-5-methyl-1H-pyrazol-4-yl)-9-methyl-9H-purin-6-yl}amino}-1-(2-methylpropyl)pyrrolidin-2-one]
>10	51 nM	CCC(=O)N1CC[C@H](Nc2ncnc3c2nc(CC(C)C)n3CC)C1 [Compound 7-2, 9-ethyl-8-(2-methylpropyl)-N-[(3S)-1-propanoylpyrrolidin-3-yl]-9H-purin-6-amine]
>10	11 nM	CCn1c(-n2cnc(C(F)(F)F)c2)nc2c(N[C@H]3CCN(C(=O)C4CC4)C3)ncnc21 [Compound 8-3, N-[(3S)-1-(cyclopropylcarbonyl)pyrrolidin-3-yl]-9-ethyl-8-[4-(trifluoromethyl)-1H-imidazol-1-yl]-9H-purin-6-amine]
>10	8.2 nM	CCn1c(-c2cnc(C)nc2)nc2c(N[C@H]3CCN(C(=O)N4CC[C@@H](OC)C4)C3)ncnc21 [Compound 12-15]
>10	< 1 nM	CCn1c(-c2ccc(C(F)(F)F)nc2)nc2c(N[C@H]3CCN(C(=O)N4CCC4)C3)ncnc21 [Compound 12-26, N-[(3S)-1-(azetidin-1-ylcarbonyl)pyrrolidin-3-yl]-9-ethyl-8-[6-(trifluoromethyl)pyridin-3-yl]-9H-purin-6-amine]
>10	120 nM	CCn1c(C(F)F)nc2c(N[C@H]3CCN(C(=O)c4cocn4)C3)ncnc21 [Compound 7-16, 8-(difluoromethyl)-9-ethyl-N-[(3S)-1-(1,3-oxazol-4-ylcarbonyl)pyrrolidin-3-yl]-9H-purin-6-amine]
>10	17 nM	CCn1c(C(=O)Nc2cccnc2)nc2c(N[C@H]3CCN(C(=O)C4CC4)C3)ncnc21 [Compound 6-21, 6-{[(3S)-1-(cyclopropylcarbonyl)pyrrolidin-3-yl]amino}-9-ethyl-N-pyridin-3-yl-9H-purine-8-carboxamide]
>10	120 nM	CCn1c(C2CC2)nc2c(N[C@H]3CCN(C(=O)C4CC4)C3)ncnc21 [Compound 7-10, 8-cyclopropyl-N-[(3S)-1-(cyclopropylcarbonyl)pyrrolidin-3-yl]-9-ethyl-9H-purin-6-amine]
>10	190 nM	CCn1c(COC)nc2c(N[C@H]3CCN(C(=O)C4CC4)C3)ncnc21 [Compound 7-8, N-[(3S)-1-(cyclopropylcarbonyl)pyrrolidin-3-yl]-9-ethyl-8-(methoxymethyl)-9H-purin-6-amine]
>10	8.8 nM	CCn1c(-c2cnc(C)nc2)nc2c(N[C@H]3C[C@H](C(=O)NCCN(C)C)N(C(=O)C4CC4)C3)ncnc21 [Compound 15-8, (4S)-1-(cyclopropylcarbonyl)-N-[2-(dimethylamino)ethyl]-4-{[9-ethyl-8-(2-methylpyrimidin-5-yl)-9H-purin-6-yl]amino}-D-prolinamide]
>10	4.3 nM	CCn1c(-c2cnc(C)nc2)nc2c(NC3CCC(=O)N(CC4CC4)C3)ncnc21 (single isomer, unassigned) [Compound 14-6, 5(S or R)-1-(cyclopropylmethyl)-5-{[9-ethyl-8-(2-methylpyrimidin-5-yl)-9H-purin-6-yl]amino}piperidin-2-one]
